Measurements reported in PubChem BioAssay AID308 (DTP/NCI, 2004).
“And” between values parts separate entries of the source, which are not always exact repeats. Identical values can stand only once. Inconclusive results and toxic doses are left out.

System: BDF1 mice, L1210 6-MP/6-TG resistant leukemia ip, survival T/C
Test: NCI In Vivo Anticancer Drug Screen. Data for tumor model L1210 Leukemia resistant to 6-MP and 6-Thioguanine; NSC 755, NSC 752 (intraperitoneal) in B6D2F1 (BDF1) mice
Conditions: endpoint: mean survival time, higher = longer survival
Experimental: The antitumor activity of compounds was measured in mice bearing transplantable tumors. Survival or tumor size were measured and the results are expressed as the measurement made in the treated group (T) divided by the measurement made in the vehicle treated control group (C). The tumor model used in this assay is L1210 Leukemia resistant to 6-MP and 6-Thioguanine; NSC 755, NSC 752 (intraperitoneal) in B6D2F1 (BDF1) mice

[1] = dose: 100.0 mg/kg/injection, schedule: Q01DX Z (ip), vehicle: saline
[2] = dose: 30.0 mg/kg/injection, schedule: Q01DX015 (ip), vehicle: carboxymethylcellulose (CMC)

`Nc1ncnc2c1ccn2C1OC(CO)C(O)C1O` (configuration not stated) was tested, and the T/C (dose: 0.03 mg/kg/injection, schedule: Q01DX Z (ip), vehicle: carboxymethylcellulose (CMC)) was 99 % of control, the T/C (dose: 0.06 mg/kg/injection, schedule: Q01DX Z (ip), vehicle: carboxymethylcellulose (CMC)) was 101 % of control and the T/C (dose: 0.12 mg/kg/injection, schedule: Q01DX Z (ip), vehicle: carboxymethylcellulose (CMC)) was 108 % of control. The T/C (dose: 0.25 mg/kg/injection, schedule: Q01DX Z (ip), vehicle: carboxymethylcellulose (CMC)) was 104 % of control, the T/C (dose: 0.5 mg/kg/injection, schedule: Q01DX Z (ip), vehicle: carboxymethylcellulose (CMC)) was 106 % of control and the T/C (dose: 1.0 mg/kg/injection, schedule: Q01DX Z (ip), vehicle: carboxymethylcellulose (CMC)) was 102 % of control. The T/C (dose: 2.0 mg/kg/injection, schedule: Q01DX Z (ip), vehicle: carboxymethylcellulose (CMC)) was 98 % of control.
For `c1ccc(CNc2ncnc3[nH]ncc23)cc1`, the T/C (dose: 1.5 mg/kg/injection, schedule: Q01DX Z (ip), vehicle: carboxymethylcellulose (CMC)) was 96 % of control, the T/C (dose: 3.0 mg/kg/injection, schedule: Q01DX Z (ip), vehicle: carboxymethylcellulose (CMC)) was 93 % of control and the T/C (dose: 6.25 mg/kg/injection, schedule: Q01DX Z (ip), vehicle: carboxymethylcellulose (CMC)) was 101 % of control. For the same compound, the T/C (dose: 12.5 mg/kg/injection, schedule: Q01DX Z (ip), vehicle: carboxymethylcellulose (CMC)) was 88 % of control, the T/C (dose: 25.0 mg/kg/injection, schedule: Q01DX Z (ip), vehicle: carboxymethylcellulose (CMC)) was 92 % of control and the T/C (dose: 50.0 mg/kg/injection, schedule: Q01DX Z (ip), vehicle: carboxymethylcellulose (CMC)) was 93 % of control.
With `O=c1cnn(C2OC(CO)C(O)C2O)c(=O)[nH]1` (configuration not stated) the T/C (dose: 62.5 mg/kg/injection, schedule: Q01DX Z (ip), vehicle: saline) was 115 % of control, the T/C (dose: 500.0 mg/kg/injection, schedule: Q01DX Z (ip), vehicle: saline) was 120 % of control and the T/C (dose: 750.0 mg/kg/injection, schedule: Q01DX Z (ip), vehicle: saline) was 110 % of control. The T/C (dose: 1000.0 mg/kg/injection, schedule: Q01DX Z (ip), vehicle: saline) was 109 % of control.
`O=P1(N(CCCl)CCCl)NCCCO1` (configuration not stated) was tested, and the T/C (dose: 37.5 mg/kg/injection, schedule: Q01DX Z (ip), vehicle: saline) was 153 % of control, the T/C (dose: 75.0 mg/kg/injection, schedule: Q01DX Z (ip), vehicle: saline) was 94 % of control and the T/C [1] was 101 % of control.
For `C[N+](C)(C)c1ncnc2nc[nH]c12`, the T/C (dose: 11.25 mg/kg/injection, schedule: Q01DX Z (ip), vehicle: saline) was 101 % of control, the T/C (dose: 22.5 mg/kg/injection, schedule: Q01DX Z (ip), vehicle: saline) was 100 % of control and the T/C (dose: 45.0 mg/kg/injection, schedule: Q01DX Z (ip), vehicle: saline) was 102 % of control. The T/C (dose: 50.0 mg/kg/injection, schedule: Q01DX Z (ip), vehicle: saline) was 105 % of control, the T/C (dose: 90.0 mg/kg/injection, schedule: Q01DX Z (ip), vehicle: saline) was 94 % of control and the T/C [1] was 99 % of control.
With `S=c1nc[nH]c2c1ncn2C1CCCC1` the T/C (dose: 10.0 mg/kg/injection, schedule: Q01DX015 (ip), vehicle: carboxymethylcellulose (CMC)) was 95 % of control, the T/C (dose: 10.0 mg/kg/injection, schedule: Q01DX015 (ip), vehicle: saline) was 100 % of control and the T/C [2] was 98 % of control. The T/C (dose: 50.0 mg/kg/injection, schedule: Q01DX015 (ip), vehicle: carboxymethylcellulose (CMC)) was 97 % of control and the T/C (dose: 50.0 mg/kg/injection, schedule: Q01DX015 (ip), vehicle: saline) was 93 % of control.
With `CSc1ncnc2nc[nH]c12` the T/C [2] was 89 % of control, the T/C (dose: 31.0 mg/kg/injection, schedule: Q01DX Z (ip), vehicle: carboxymethylcellulose (CMC)) was 97 % of control and the T/C (dose: 45.0 mg/kg/injection, schedule: Q01DX015 (ip), vehicle: carboxymethylcellulose (CMC)) was 103 % of control. The T/C (dose: 60.0 mg/kg/injection, schedule: Q01DX015 (ip), vehicle: carboxymethylcellulose (CMC)) was 88 % of control, the T/C (dose: 62.5 mg/kg/injection, schedule: Q01DX Z (ip), vehicle: carboxymethylcellulose (CMC)) was 92 % of control and the T/C (dose: 75.0 mg/kg/injection, schedule: Q01DX015 (ip), vehicle: carboxymethylcellulose (CMC)) was 89 % of control. The T/C (dose: 90.0 mg/kg/injection, schedule: Q01DX015 (ip), vehicle: carboxymethylcellulose (CMC)) was 86 % of control, the T/C (dose: 120.0 mg/kg/injection, schedule: Q01DX001 (ip), vehicle: carboxymethylcellulose (CMC)) was 95 % of control and 104 % of control and the T/C (dose: 125.0 mg/kg/injection, schedule: Q01DX Z (ip), vehicle: carboxymethylcellulose (CMC)) was 88 % of control. The T/C (dose: 180.0 mg/kg/injection, schedule: Q01DX001 (ip), vehicle: carboxymethylcellulose (CMC)) was 92 % of control and the T/C (dose: 270.0 mg/kg/injection, schedule: Q01DX001 (ip), vehicle: carboxymethylcellulose (CMC)) was 94 % of control.
